# Tested on: human chronmyelogenors leukemia cell strain K562
# Assay: K562 cell toxicity test (MTT)
# Format: cell-based
# Details: 48 h; for OD value: MTT 490 nm
# Method: K-562 cells were cultured in an incubator at 37° C. with 5% CO2 saturated humidity in the RPMI-1640 complete culture medium containing inactivated calf serum with volume fraction of 10%, 100 U penicillin and streptomycin. […] For each drug concentration, 6 complex cases were provided. Put back the culture plate into the cell incubator, after 48 h, add 20 μL MTT (5 mg/mL) solution and continue to incubate it in the incubator for 4 h, then each case was added with triple liquid 100 μL, put it overnight to allow the crystal to fully dissolve. Vibrate it with oscillator for 20 min and determine the light absorption at 490 nm with a fully automatic ELISA instrument, and calculate the average suppression rate, suppression rate (%)=(control group A490−test group A490)/control group A490), the experiment was repeated three times. Relevant analysis and Student t tests in Microsoft Excel 2003 were used, and data are presented in X±SD.
smiles,measurement,setting,value
"O=c1c(-c2ccc(O)cc2)coc2c([C@@H]3O[C@H](CO[C@]4(CO)O[C@H](CO)[C@@H](O)[C@@H]4O)[C@@H](O)[C@H](O)[C@H]3O)c(O)ccc12 [monofructosyl-β(2,6)-puerarin]",Average suppression rate,1 μmol/L,7.85%
same,OD value,1 μmol/L,0.950 ± 0.041
same,Average suppression rate,5 μmol/L,7.53%
same,OD value,5 μmol/L,0.950 ± 0.018
same,Average suppression rate,10 μmol/L,6.76%
same,OD value,10 μmol/L,0.958 ± 0.022
same,Average suppression rate,20 μmol/L,6.16%
same,OD value,20 μmol/L,0.963 ± 0.055
same,Average suppression rate,50 μmol/L,11.14%
same,OD value,50 μmol/L,0.913 ± 0.048
same,Average suppression rate,100 μmol/L,16.41%
same,OD value,100 μmol/L,0.858 ± 0.028
same,Average suppression rate,150 μmol/L,29.84%
same,OD value,150 μmol/L,0.720 ± 0.055
same,Average suppression rate,200 μmol/L,46.41%
same,OD value,200 μmol/L,0.550 ± 0.086

# Reference: patent US8598128B2, “Fructosylated puerarin, and preparation method and use thereof” (priority 2010, dated 2013)
